Source: patent US7326540B2, “Methods for identifying compounds that modulate stabilization of secretase-associated proteins” (priority 2003, dated 2008)
Where a SMILES comes first, the peptide text is derived from it. The star is where a group is joined. Cbz = O=C(OCc1ccccc1)*; CH2F = FC*

Key:
Format in all cases: cell-based, Chinese Hamster
[1] = test system: BACE; experiment: BACE protein levels by Western blot in CHO cells overexpressing APP751 and PS1WT
Text: We examined whether the apoptosis-mediated increase in Aβ generation was associated with changes in the levels and activities of BACE and β-secretase. […] In addition, upregulation of BACE occured also in H4 human neuroglioma (FIG. 3B) and in BACE+/+ mouse fibroblasts (FIG. 3C). BACE−/− mouse fibroblasts were used to show the specificity of the antibody used to detect BACE (FIG. 3C).
(§1) Chinese Hamster Ovary (CHO) cells expressing APP751 and BACE (CAB), CHO cells expressing full-length APP and wild-type PS1 (CHO-APP751/PS1) or expressing C99 and wild-type PS1 (CHO-CC99/PS1), H4 human neuroglioma cells expressing APP751 (H4-APP751), mouse embryonic fibroblast (MEF), embryonic stem (ES) cells, and human epithelial A431 cells were grown as described previously (Marambaud, P. et al., Embo J 21, 1948-56 (2002); Cai, H. et al., Nat Neurosci 4, 233-4 (2001); Sato, N. et al., Nat Cell Biol 2, 863-70 (2000); Puglielli, L., Ellis, B. C., Saunders, A. J. & Kovacs, D. M., J Biol Chem 278, 19777-83 (2003); Wolfe, M. S. et al., Nature 398, 513-7 (1999)). For the induction of apoptosis, we used staurosporine or etoposide (Calbiochem (EMD Biosciences, San Diego, Calif.)). For Aβ measurements, cells were seeded at the density of 0.5×10^6 cells per well in 6 well plates. After 48 hours, cells were treated with either STS (1 μM) for 6 hours. […]

[2] = test system: γ-secretase; experiment: Secreted Aβ1-total ELISA in CHO-CC99/PS1 cells; details: STS-treated CHO-CC99/PS1 cells, 6 hours
Protocol: as §1
Secreted Aβ1-total was measured in the conditioned media of untreated cells or of cells treated with STS or STS plus zVAD using a sensitive ELISA (Wolfe, M. S. et al., Nature 398, 513-7 (1999). At least three different experiments were carried out and each experiment was performed at least in triplicate. […]

[3] = test system: Aβ production in CHO cells overexpressing APP751 and PS1 WT; experiment: Secreted Aβ ELISA in CHO cells overexpressing APP751 and PS1 during induced apoptosis
Protocol: We examined Aβ generation induced by apoptosis in CHO cell lines. We used CHO cell lines stably overexpressing both APP751 and PS1 WT. For the induction of apoptosis, we used 1 μM staurosporine (STS) in serum free media. Secreted Aβ was measured in the conditioned media of cells treated with STS for 6 hrs using a sensitive ELISA assay [courtesy of Dr. Dennis Selkoe; M. S. Wolfe et al., Nature 398, 513-7 (1999)].
Treatment with either STS for 6 hrs or etoposide for 12 hrs induced from 10 to 20% of cell death assayed by MTT assay, which is a colorimetric short-term suspension culture assay in which the yellow tetrazolium salt (MTT) is reduced in metabolically active cells to form insoluble purple formazan crystals, which are solubilized by the addition of a detergent.
Chinese Hamster Ovary (CHO) cells expressing APP751 and BACE (CAB), CHO cells expressing full-length APP and wild-type PS1 (CHO-APP751/PS1) or expressing C99 and wild-type PS1 (CHO-CC99/PS1), H4 human neuroglioma cells expressing APP751 (H4-APP751), mouse embryonic fibroblast (MEF), embryonic stem (ES) cells, and human epithelial A431 cells were grown as described previously (Marambaud, P. et al., Embo J 21, 1948-56 (2002); Cai, H. et al., Nat Neurosci 4, 233-4 (2001); Sato, N. et al., Nat Cell Biol 2, 863-70 (2000); Puglielli, L., Ellis, B. C., Saunders, A. J. & Kovacs, D. M., J Biol Chem 278, 19777-83 (2003); Wolfe, M. S. et al., Nature 398, 513-7 (1999)). For the induction of apoptosis, we used staurosporine or etoposide (Calbiochem (EMD Biosciences, San Diego, Calif.)). For Aβ measurements, cells were seeded at the density of 0.5×10^6 cells per well in 6 well plates. After 48 hours, cells were treated with either STS (1 μM) for 6 hours. […] For time-course experiments, cells were seeded at the density of 2×10^6 cells per 100 mm dish and treated with STS (1 μM) or etoposide (100 μg/mL). At different time points (0, 3, 6, 9, 12 and 24 hours), the cells were scraped, centrifuged and then lysed in buffer containing 1% NP40. Western blot analysis was performed as previously described (Tesco, G., Koh, Y. H. & Tanzi, R. E., J Biol Chem 278, 46074-80 (2003)). Densitometry analysis was performed on a Macintosh computer using the public domain NIH Image program (developed at the U.S. National Institutes of Health and available on the Internet at http://rsb.info.nih.gov/nih-image/).
Secreted Aβ1-total was measured in the conditioned media of untreated cells or of cells treated with STS or STS plus zVAD using a sensitive ELISA (Wolfe, M. S. et al., Nature 398, 513-7 (1999). At least three different experiments were carried out and each experiment was performed at least in triplicate.

[4] = test system: BACE; experiment: BACE protein levels by Western blot and densitometry in CAB cells
Protocol: Chinese Hamster Ovary (CHO) cells expressing APP751 and BACE (CAB), CHO cells expressing full-length APP and wild-type PS1 (CHO-APP751/PS1) or expressing C99 and wild-type PS1 (CHO-CC99/PS1), H4 human neuroglioma cells expressing APP751 (H4-APP751), mouse embryonic fibroblast (MEF), embryonic stem (ES) cells, and human epithelial A431 cells were grown as described previously (Marambaud, P. et al., Embo J 21, 1948-56 (2002); Cai, H. et al., Nat Neurosci 4, 233-4 (2001); Sato, N. et al., Nat Cell Biol 2, 863-70 (2000); Puglielli, L., Ellis, B. C., Saunders, A. J. & Kovacs, D. M., J Biol Chem 278, 19777-83 (2003); Wolfe, M. S. et al., Nature 398, 513-7 (1999)). For the induction of apoptosis, we used staurosporine or etoposide (Calbiochem (EMD Biosciences, San Diego, Calif.)). For Aβ measurements, cells were seeded at the density of 0.5×10^6 cells per well in 6 well plates. After 48 hours, cells were treated with either STS (1 μM) for 6 hours. In order to inhibit caspase activation a sister plate of cells was pre-treated with zVAD ([…], Enzyme Systems Products) for 1 hour before STS treatment. For time-course experiments, cells were seeded at the density of 2×10^6 cells per 100 mm dish and treated with STS (1 μM) or etoposide (100 μg/mL). At different time points (0, 3, 6, 9, 12 and 24 hours), the cells were scraped, centrifuged and then lysed in buffer containing 1% NP40. Western blot analysis was performed as previously described (Tesco, G., Koh, Y. H. & Tanzi, R. E., J Biol Chem 278, 46074-80 (2003)). Densitometry analysis was performed on a Macintosh computer using the public domain NIH Image program (developed at the U.S. National Institutes of Health and available on the Internet at http://rsb.info.nih.gov/nih-image/).
It has been previously shown that overexpression of BACE enhances β-secretase cleavage of APP leading to the accumulation of intracellular C99 (Vassar, R. et al., Science 286, 735-41 (1999)). We first asked whether apoptosis/caspase activation leads to accumulation of C99 owing to increased β-secretase activity.

[5] = 1 μM STS in serum free media, 6 hrs, p<0.05 t-test
[6] = etoposide 100 μg/mL + 200 μM zVAD, 12 hrs, compared to etoposide treated cells
[7] = zVAD 200 μM pretreated 1 hr before STS, compared to STS-treated cells, p<0.05

SMILES	BACE protein levels ([1]; after 24 hrs of STS treatment)	Aβ1-total increase compared to untreated cells [2] [fold]	Secreted Aβ1-42 [3, 5]	Secreted Aβtotal [3, 5]	Aβ1-total increase ([3]; STS-treated CHO-APP751/PS1 cells, 6 hours) [fold]	BACE protein levels increase ([4]; after 6 hours or 24 hours of STS treatment, CAB cells) [fold]	BACE upregulation during STS-induced apoptosis ([1]; zVAD 100 μM, all cell types (CHO, H4 human neuroglioma, BACE+/+ mouse fibroblasts))	Secreted Aβ42 [3, 6]	Secreted Aβtotal [3, 6]	Secreted Aβ1-42 [3, 7]	Secreted Aβtotal [3, 7]	BACE accumulation during STS-induced apoptosis ([4]; zVAD, both CAB and H4-APP751 cells)
CN[C@@H]1C[C@H]2O[C@@](C)([C@@H]1OC)n1c3ccccc3c3c4c(c5c6ccccc6n2c5c31)C(=O)NC4 [STS, staurosporine]	significant increase	~1.5	significantly increased	significantly increased	~2.5	~4	–	–	–	–	–	–
COC(=O)C[C@H](NC(=O)[C@H](C)NC(=O)[C@@H](NC(=O)OCc1ccccc1)C(C)C)C(=O)CF [zVAD] (Cbz-Val-Ala-Asp(OMe)-CH2F)	–	–	–	–	–	–	prevented BACE upregulation	significantly attenuate	significantly attenuate	significantly reduced	significantly reduced	prevented BACE accumulation
